The results in this text go back to patent publication US10485236B2, “Triazole derivatives, intermediates thereof and their use as fungicides” (Bayer CropScience Aktiengesellschaft, priority 2015, dated 2019).

The test deals with Septoria tritici. The test is described as follows: Example L: in vivo preventive Septoria tritici test (wheat). The settings on record: Zymoseptoria tritici, 504 h, 500 ppm of active ingredient, preventive spray, evaluated 21 days after inoculation, read-out: efficacy. As to the method: Example L: In Vivo Preventive Septoria tritici Test (Wheat) [table] To produce a suitable preparation of active compound, 1 part by weight of active compound or active compound combination is mixed with the stated amounts of solvent and emulsifier, and the concentrate is diluted with water to the desired concentration. To test for preventive activity, young plants are sprayed with the preparation of active compound or active compound combination at the stated rate of application. After the spray coating has been dried, the plants are sprayed with a spore suspension of Septoria tritici. The plants remain for 48 hours in an incubation cabinet at approximately 20° C. and a relative atmospheric humidity of approximately 100% and afterwards for 60 hours at approximately 15° C. in a translucent incubation cabinet at a relative atmospheric humidity of approximately 100%. The plants are placed in the greenhouse at a temperature of approximately 15° C. and a relative atmospheric humidity of approximately 80%. The test is evaluated 21 days after the inoculation. 0% means an efficacy which corresponds to that of the untreated control, while an efficacy of 100% means that no disease is observed.
As for `CC(O)(Cn1cncn1)c1ccc(Oc2ccc(Cl)cc2)nc1C(F)(F)F` (centres unmarked) [I.01, 2-[6-(4-chlorophenoxy)-2-(trifluoromethyl)-3-pyridyl]-1-(1,2,4-triazol-1-yl)propan-2-ol], the pest or weed control at 500 ppm was in the range of 90 to 100%.

For `CC(O)(Cn1cncn1)c1cnc(Oc2ccc(Cl)cc2)cc1C(F)(F)F` (centres unmarked) [I.02, 2-[6-(4-chlorophenoxy)-4-(trifluoromethyl)-3-pyridyl]-1-(1,2,4-triazol-1-yl)propan-2-ol], the pest or weed control at 500 ppm fell in the range of 90 to 100%.

For the compound `OC(Cn1cncn1)c1ccc(Oc2ccc(Cl)cc2)nc1C(F)(F)F` (centres unmarked) [I.03, 1-[6-(4-chlorophenoxy)-2-(trifluoromethyl)-3-pyridyl]-2-(1,2,4-triazol-1-yl)ethanol], the pest or weed control at 500 ppm was in the range of 90 to 100%.

Consider `CC(O)(Cn1cncn1)c1cnc(Oc2ccccc2)cc1Cl` (centres unmarked) [I.05], for which the pest or weed control at 500 ppm was 90 to 100%.

Consider `CC(O)(Cn1cncn1)c1ccc(Oc2ccc(S(F)(F)(F)(F)F)cc2)nc1Cl` (centres unmarked) [I.35], for which the pest or weed control at 500 ppm lay within 90 to 100%.

As to `OC(Cn1cncn1)c1cnc(Oc2ccc(S(F)(F)(F)(F)F)cc2)cc1C(F)(F)F` (centres unmarked) [I.36], the pest or weed control at 500 ppm was 90 to 100%.

Take `CC(O)(Cn1cncn1)c1ccc(Oc2ccc(C(F)F)cc2)nc1Cl` (centres unmarked) [I.39]: the pest or weed control at 500 ppm fell in the range of 70 to 79%.

As to `C[C@@](O)(Cn1cncn1)c1cnc(Oc2ccc(Cl)cc2)cc1C(F)(F)F` [I.45], the pest or weed control at 500 ppm lay in the range of 90 to 100%.

Turning to `OC(Cn1cncn1)c1cnc(Oc2ccc(C(F)(F)F)cc2)cc1C(F)(F)F` (centres unmarked) [I.47], the pest or weed control at 500 ppm was in the range of 90 to 100%.

Consider `OC(Cn1cncn1)(c1ccc(Oc2ccc(Cl)cc2)nc1C(F)(F)F)C1CC1` (centres unmarked) [I.91, 1-[6-(4-chlorophenoxy)-2-(trifluoromethyl)-3-pyridyl]-1-cyclopropyl-2-(1,2,4-triazol-1-yl)ethanol], for which the pest or weed control at 500 ppm was 80 to 89%.

For the compound `O=C(Cn1cncn1)c1ccc(Oc2ccc(Cl)cc2)nc1C(F)(F)F` [VII.01, 1-[6-(4-chlorophenoxy)-2-(trifluoromethyl)-3-pyridyl]-2-(1,2,4-triazol-1-yl)ethanone], the pest or weed control at 500 ppm was in the range of 90 to 100%.
